Literature values, collected in patent US6953790B2, “CGRP receptor antagonists” (Merck & Co., Inc., priority 2003, dated 2005).
No end group written: not given here.

Experiments:
[1] = test system: middle meningeal artery; settings: rats, electrical stimulation of the dura mater, prior administration (Williamson et al. 1997)
[2] = test system: facial blood flow; settings: rat, trigeminal ganglion stimulation (Escott et al. 1995)
[3] = test system: facial blood flow; settings: marmoset, electrical stimulation of the trigeminal ganglion (Doods et al. 2000)
[4] = target: T1, CGRP receptor (Homo sapiens, UniProt O60894+Q16602); settings: clinical trials (Olesen et al. 2004)
T1 construct: host or cells: human migraine patients (in vivo)
T1 sequence (Q16602 23-461): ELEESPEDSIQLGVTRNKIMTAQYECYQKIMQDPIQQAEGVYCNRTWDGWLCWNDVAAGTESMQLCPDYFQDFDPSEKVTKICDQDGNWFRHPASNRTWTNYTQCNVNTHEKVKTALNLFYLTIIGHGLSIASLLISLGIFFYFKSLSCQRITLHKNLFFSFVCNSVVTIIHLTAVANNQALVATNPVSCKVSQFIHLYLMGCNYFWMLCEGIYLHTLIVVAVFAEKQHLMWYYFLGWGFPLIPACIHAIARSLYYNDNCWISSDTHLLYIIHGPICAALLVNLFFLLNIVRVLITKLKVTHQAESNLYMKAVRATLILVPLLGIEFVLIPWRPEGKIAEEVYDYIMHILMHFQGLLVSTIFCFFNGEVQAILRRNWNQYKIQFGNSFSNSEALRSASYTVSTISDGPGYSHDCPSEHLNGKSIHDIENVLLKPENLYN
T1 sequence (O60894 27-148): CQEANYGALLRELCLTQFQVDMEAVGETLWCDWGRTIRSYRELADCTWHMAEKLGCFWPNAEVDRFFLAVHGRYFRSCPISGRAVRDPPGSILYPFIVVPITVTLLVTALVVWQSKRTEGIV

| Compound | effect on increase in diameter of the middle meningeal artery [1] | effect on increased facial blood flow [2] | effect on increase in facial blood flow [3] | efficacy in acute attacks of migraine [4] |
| --- | --- | --- | --- | --- |
| CGRP(8-37): "a peptide CGRP antagonist" (VTHRLAGLLSRSGGVVKNNFVPTNVGSKAF; ends and bridges not checked; UniProt P06881 90-119, looked up, fragment) | blocked | inhibited | – | – |
| NCCCC[C@H](NC(=O)[C@@H](Cc1cc(Br)c(O)c(Br)c1)NC(=O)N1CCC(N2Cc3ccccc3NC2=O)CC1)C(=O)N1CCN(c2ccncc2)CC1 [BIBN4096BS] | – | – | blocked | effective in treating acute attacks of migraine |
